The source of these data is ChEMBL document CHEMBL1133622, “Probes for narcotic receptor-mediated phenomena. 27. Synthesis and pharmacological evaluation of selective delta-opioid receptor agonists from 4-[(alphaR)-alpha-(2S,5R)-4-substituted-2, 5-dimethyl-1-piperazinyl-3-methoxybenzyl]-N,N-diethylbenzamides and their enantiomers” (J Med Chem, 2000).

For assay [1], the target named is Delta-type opioid receptor (Rattus norvegicus, UniProt P33533). Briefly: Inhibition of [3H]-DADLE binding to rat brain membrane Opioid receptor delta 1.
Assay [2] addresses Delta-type opioid receptor (Rattus norvegicus) (UniProt P33533). The assay can be described thus: Percent stimulation of [35S]GTP-gamma-S, binding at 10 uM. Type of assay: functional.
The target is the same in assay [3]. Briefly: Percent inhibition of SNC80 stimulated [35S]GTP-gamma-S, binding at 10 uM. Type of assay: functional. (Binding of GTPγS marks nucleotide exchange on a G protein.)
Assay [4] is filed under the species Rattus norvegicus. Briefly: Percent stimulation of [35S]GTP-gamma-S, binding by the compound (10 uM). It is filed as functional.
Assay [5] is filed under the species Rattus norvegicus. Briefly: (§1) Percent inhibition of SNC80 stimulated [35S]GTP-gamma-S, binding by the compound (10 uM). Type of assay: functional.
Assay [6] addresses Delta-type opioid receptor (Rattus norvegicus) (UniProt P33533). The description is as §1. Type of assay: functional.

Delta-type opioid receptor (Rattus norvegicus), sequence (P33533 whole entry): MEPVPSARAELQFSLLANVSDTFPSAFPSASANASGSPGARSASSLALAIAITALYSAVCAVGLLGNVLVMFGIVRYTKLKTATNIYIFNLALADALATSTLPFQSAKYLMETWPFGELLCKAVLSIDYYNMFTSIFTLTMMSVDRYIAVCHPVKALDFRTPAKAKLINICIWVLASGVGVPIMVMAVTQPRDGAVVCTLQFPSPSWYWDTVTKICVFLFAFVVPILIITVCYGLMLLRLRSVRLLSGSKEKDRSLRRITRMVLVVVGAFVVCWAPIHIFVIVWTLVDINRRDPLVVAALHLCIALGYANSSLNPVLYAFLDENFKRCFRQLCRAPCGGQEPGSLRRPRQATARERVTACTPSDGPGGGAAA
Delta-type opioid receptor, sequence (P33533 whole entry): as above

The term Ki denotes the equilibrium dissociation constant of an inhibitor or competing ligand from its target. A higher Ki goes with weaker binding. A word on the inhibition: it is the percentage by which the read-out fell short of the control. `C=C(C)CN1C[C@H](C)N([C@H](c2ccc(C(=O)N(CC)CC)cc2)c2cccc(OC)c2)C[C@H]1C` had a Ki in assay [1] of 4.8 nM. For the same compound, in assay [2], the Stimulation turned out to be 119%. Moreover, in assay [3], the inhibition was 2.3%.
As to `CCN(CC)C(=O)c1ccc([C@H](c2cccc(OC)c2)N2C[C@@H](C)N(C)C[C@@H]2C)cc1`, the inhibition constant (Ki) in assay [1] stood at 4.5 nM. For the same compound, the Stimulation in assay [2] amounted to 25%. The compound further displayed an inhibition in assay [3] of 18%.
The corresponding values for `CCN(CC)C(=O)c1ccc([C@H](c2cccc(OC)c2)N2C[C@@H](C)NC[C@@H]2C)cc1` are 4.7 nM, 63% and 11%.
The corresponding values for `CCN(CC)C(=O)c1ccc([C@H](c2cccc(OC)c2)N2C[C@@H](C)N(Cc3ccccc3)C[C@@H]2C)cc1` are 6.2 nM, 144% and 0%.
As usually defined, the Inhibition is the change of the read-out against control, counted positive when it falls. The low end stands for a response near the control, the high end for a response far below the control. With `C=CCN1C[C@H](C)N([C@H](c2ccc(C(=O)N(CC)CC)cc2)c2cccc(OC)c2)C[C@H]1C` [SNC-80], the Stimulation in the assay filed under Rattus norvegicus [4] worked out at 128%. In addition, in the assay filed under Rattus norvegicus [5], the Inhibition was 0%.
Take `CCCCN1C[C@H](C)N([C@H](c2ccc(C(=O)N(CC)CC)cc2)c2cccc(OC)c2)C[C@H]1C`: the Ki in assay [1] is 2.7 nM. In assay [2], this compound displayed a Stimulation of 66%. In the assay listed under Rattus norvegicus [5], this compound gave an Inhibition of 19%.
Consider `CCCCCN1C[C@H](C)N([C@H](c2ccc(C(=O)N(CC)CC)cc2)c2cccc(OC)c2)C[C@H]1C`, for which, in assay [1], the inhibition constant Ki was determined as 4.7 nM. Moreover, the Stimulation in assay [2] stood at 26%. In assay [6], this compound had an inhibition of 28%.
Compound `CCN(CC)C(=O)c1ccc([C@H](c2cccc(OC)c2)N2C[C@@H](C)N(CCCc3ccccc3)C[C@@H]2C)cc1` came in with an inhibitory constant (Ki) in assay [1] of 16.7 nM. Besides, the Stimulation in assay [2] was 18%. Further, the inhibition in assay [3] is 13%.
As for `CCN(CC)C(=O)c1ccc([C@H](c2cccc(OC)c2)N2C[C@@H](C)N(CC)C[C@@H]2C)cc1`, the inhibition constant Ki in assay [1] amounted to 5.2 nM. In addition, the Stimulation in assay [2] was 45%. In addition, in assay [6], the inhibition is 13%.
Consider `CCN(CC)C(=O)c1ccc([C@H](c2cccc(OC)c2)N2C[C@@H](C)N(CC3CC3)C[C@@H]2C)cc1`, for which the affinity in assay [1], expressed as Ki, was 3.5 nM. The Stimulation in assay [2] amounted to 48%. Besides, in assay [6], the inhibition turned out to be 18%.
With `CCN(CC)C(=O)c1ccc([C@H](c2cccc(OC)c2)N2C[C@@H](C)N(CCc3ccccc3)C[C@@H]2C)cc1`, the Ki in assay [1] is 30.6 nM. Moreover, the Stimulation in assay [2] worked out at 10%. For the same compound, the inhibition in assay [3] stood at 30%.
The matching figures for `CCCCCCN1C[C@H](C)N([C@H](c2ccc(C(=O)N(CC)CC)cc2)c2cccc(OC)c2)C[C@H]1C`: 10.4 nM, 21% and 34%.
The matching figures for `C/C=C/CN1C[C@H](C)N([C@H](c2ccc(C(=O)N(CC)CC)cc2)c2cccc(OC)c2)C[C@H]1C`: 1.9 nM, 130% and 6.3%.
